Test results taken from patent publication US8163952B2, “RAR receptor agonist ligands and use thereof in human medicine and cosmetics” (Galderma Research & Development, priority 2007, dated 2012).

Experiments:
RARα = target: T1, RARα (Homo sapiens, UniProt P10276); experiment: Transactivation assay (luciferase reporter, crossed curves vs reference agonist, Schild regression); assay type: cell-based; conditions: HeLa stable transfectants, ERE-βGlob-Luc-SV-Neo reporter and RARα ER-DBD-puro; 18 hours incubation; apparent Kd; read-out: RARα Kdapp
T1 sequence (P10276 183-462 limits assumed): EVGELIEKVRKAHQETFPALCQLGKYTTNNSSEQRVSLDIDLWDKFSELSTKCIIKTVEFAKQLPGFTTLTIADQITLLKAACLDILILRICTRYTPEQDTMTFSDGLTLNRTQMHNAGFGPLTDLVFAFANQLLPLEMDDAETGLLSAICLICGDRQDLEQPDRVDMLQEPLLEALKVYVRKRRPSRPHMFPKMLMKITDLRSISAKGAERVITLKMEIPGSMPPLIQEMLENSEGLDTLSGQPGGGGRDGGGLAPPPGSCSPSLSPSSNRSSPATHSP
Method: (§1) This activity on RARα, β and γ receptors is measured in a transactivation test and quantified by means of the dissociation constant Kdapp (apparent).
(§2) The activation of receptors with an agonist (activator) in HeLa cells leads to the expression of a reporter gene, luciferase, which, in the presence of a substrate, generates light. The activation of the receptors can thus be measured by quantifying the luminescence produced after incubation of the cells in the presence of a reference agonist. Inhibitory products will displace the agonist from its site, thus preventing activation of the receptor. The activity is measured by quantifying the decrease in light produced. This measurement makes it possible to determine the inhibitory activity of the compounds according to the invention.
(§3) In this study, a constant is determined which represents the affinity of the molecules for the receptor. Since this value can fluctuate depending on the basal activity and the expression of the receptor, it is referred to as the Kd apparent (KdApp).
(§4) To determine this constant, “crossed curves” of the test product against a reference agonist, 4-[2-(5,5,8,8-tetramethyl-5,6,7,8-tetrahydronaphthalen-2-yl)propenyl]benzoic acid, are realized in 96-well plates. The test product is used at 10 concentrations and the reference agonist at 7 concentrations. In each well, the cells are in contact with a concentration of the test product and with a concentration of the reference agonist, 4-[2-(5,5,8,8-tetramethyl-5,6,7,8-tetrahydronaphthalen-2-yl)]propenyl]benzoic acid. Measurements are also carried out for the total agonist control (4-[2-(5,5,8,8-tetramethyl-5,6,7,8-tetrahydro-naphthalen-2-yl)propenyl]benzoic acid) and the inverse agonist control, 4-{(E)-3[4-(4-tert-butylphenyl)-5,5,8,8-tetramethyl-5,6,7,8-tetrahydronaphthalen-2-yl]-3-oxopropenyl}benzoic acid.
(§5) These AC50 values are used to calculate the Schild regression by plotting a straight line corresponding to the Schild equation (“Quantitation in receptor pharmacology” Tervy P. Kenakin, Receptors and Channels, 2001, 7, 371-385).
(§6) The HeLa cell lines used are stable transfectants containing the ERE-βGlob-Luc-SV-Neo (reporter gene) and RAR (α, β, γ) ER-DBD-puro plasmids. These cells are seeded in 96-well plates at a rate of 10 000 cells per well in 100 μl of DMEM medium without phenol red, supplemented with 10% of defatted calf serum. The plates are then incubated at 37° C., 7% CO2, for 4 hours.
(§7) The plates are then incubated for 18 hours at 37° C., 7% CO2. The culture medium is removed by turning the plates over, and 100 μl of a 1:1 PBS/luciferin mixture are added to each well. After 5 minutes, the plates are read using a luminescence reader.

RARβ = target: T2, RARβ (Homo sapiens, UniProt P10826); experiment: as above; assay type: cell-based; conditions: HeLa stable transfectants, ERE-βGlob-Luc-SV-Neo reporter and RARβ ER-DBD-puro; 18 hours incubation; apparent Kd; read-out: RARβ Kdapp
T2 sequence (P10826 154-455 limits assumed): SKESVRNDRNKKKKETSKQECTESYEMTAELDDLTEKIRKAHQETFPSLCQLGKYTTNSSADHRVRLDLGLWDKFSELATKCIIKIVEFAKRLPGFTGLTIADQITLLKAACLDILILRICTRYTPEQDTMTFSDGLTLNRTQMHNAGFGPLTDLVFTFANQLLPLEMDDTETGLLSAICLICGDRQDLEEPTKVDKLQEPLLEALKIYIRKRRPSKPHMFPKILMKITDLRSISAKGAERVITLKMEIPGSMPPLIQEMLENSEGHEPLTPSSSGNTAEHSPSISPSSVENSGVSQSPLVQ
Method: as §1, §2, §3, §4, §5, §6, §7

RARγ = target: T3, RARγ (Homo sapiens, UniProt P13631); experiment: as above; assay type: cell-based; conditions: HeLa stable transfectants, ERE-βGlob-Luc-SV-Neo reporter and RARγ ER-DBD-puro; 18 hours incubation; apparent Kd; read-out: RARγ Kdapp
T3 sequence (P13631 185-454 limits assumed): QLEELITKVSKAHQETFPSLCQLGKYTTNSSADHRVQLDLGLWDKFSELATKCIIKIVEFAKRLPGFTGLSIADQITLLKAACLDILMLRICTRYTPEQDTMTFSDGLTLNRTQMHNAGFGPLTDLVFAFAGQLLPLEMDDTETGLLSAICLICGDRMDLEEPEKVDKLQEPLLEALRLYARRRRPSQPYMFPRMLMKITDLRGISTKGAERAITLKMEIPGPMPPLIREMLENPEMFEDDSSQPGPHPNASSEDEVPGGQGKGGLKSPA
Method: as §1, §2, §3, §4, §5, §6, §7

| Kd (RARα) [nM] | Kd (RARβ) [nM] | Kd (RARγ) [nM] | melting point [°C] | Compound |
| --- | --- | --- | --- | --- |
| 250 | 60 | 4 |  | CN(C)c1c(Cl)cc(C(O)C#Cc2ccc(C(=O)O)c(O)c2)cc1C(C)(C)C (stereo not drawn) [Compound of example 8, 4-[3-(3-tert-butyl-5-chloro-4-dimethylaminophenyl)-3-hydroxyprop-1-ynyl]-2-hydroxybenzoic acid] |
| 120 | 15 | 2 |  | CN(C)c1c(Cl)cc(C(O)C#Cc2ccc(C(=O)O)cc2)cc1C(C)(C)C (stereo not drawn) [Compound of example 7, 4-[3-(3-tert-butyl-5-chloro-4-dimethylaminophenyl)-3-hydroxyprop-1-ynyl]benzoic acid] |
| 1000 | 120 | 1 |  | CC(C)c1cc(C(O)C#Cc2ccc(C(=O)O)c(O)c2)cc(C(C)C)c1N(C)C (stereo not drawn) [Compound of example 10, 4-[3-(4-Dimethylamino-3,5-diisopropylphenyl)-3-hydroxyprop-1-ynyl]-2-hydroxybenzoic acid] |
| 1000 | 60 | 30 |  | CCN(CC)c1ccc(C(O)C#Cc2ccc(C(=O)O)cc2)cc1C(C)C (stereo not drawn) [Compound of example 11, 4-[3-(4-diethylamino-3-isopropylphenyl)-3-hydroxyprop-1-ynyl]benzoic acid] |
| 625 | 185 | 37.5 | 140 | CCN(CC)c1ccc(C(O)C#Cc2ccc(C(=O)O)cc2)cc1C(C)(C)C (stereo not drawn) [Compound of example 1, 4-[3-(3-tert-butyl-4-diethylaminophenyl)-3-hydroxyprop-1-ynyl]benzoic acid] |
| 250 | 500 | 60 |  | CCN(CC)c1ccc(C(O)C#Cc2ccc(C(=O)O)c(O)c2)cc1C(C)(C)C (stereo not drawn) [Compound of example 6, 4-[3-(3-tert-butyl-4-diethylaminophenyl)-3-hydroxyprop-1-ynyl]-2-hydroxybenzoic acid] |
| 60 | 60 | 0.5 |  | CC(C)c1cc(C(O)C#Cc2ccc(C(=O)O)cc2)cc(C(C)C)c1N(C)C (stereo not drawn) [Compound of example 9, 4-[3-(4-Dimethylamino-3,5-diisopropylphenyl)-3-hydroxyprop-1-ynyl]benzoic acid] |
| 1000 | 252 | 30 |  | CC(C)(C)c1cc(C(O)C#Cc2ccc(C(=O)O)cc2)ccc1N1CCCC1 (stereo not drawn) [Compound of example 4, 4-[3-(3-tert-butyl-4-pyrrolidin-1-ylphenyl)-3-hydroxyprop-1-ynyl]benzoic acid] |
| 4010 | 2020 |  |  | CC(C)(C)c1cc(C(O)C#Cc2ccc(C(=O)O)cc2)ccc1N1CCCCC1 (stereo not drawn) [Compound of example 5, 4-[3-(3-tert-butyl-4-piperidin-1-ylphenyl)-3-hydroxyprop-1-ynyl]benzoic acid] |
| 250 | 120 | 15 |  | CN(C)c1ccc(C(O)C#Cc2ccc(C(=O)O)cc2)cc1C(C)(C)C (stereo not drawn) [Compound of example 3, 4-[3-(3-tert-butyl-4-dimethylaminophenyl)-3-hydroxyprop-1-ynyl]benzoic acid] |
